Structures can show the parent of a compound that is named as a salt. Where two headings read alike, the source gives them in different places. One block for each molecule: values may come before it.
Tests used:
Mia Paca-2 cells = experiment: WST-1 proliferation/survival assay, gemcitabine-resistant Mia Paca-2; type: cell-based; details: for cell proliferation, single agent: TKI 10 μM; for sensitization of cells to gemcitabine by TKI pre-incubation: TKI 5 or 10 μM overnight before gemcitabine, FIG. 2; for IC50: Homo sapiens, 72 hours, 1% FCS, read-out: IC50 single agent
Experimental: The antiproliferative activity of each TKI and gemcitabine is assessed using a WST-1 proliferation/survival assay in growth medium containing 1% fetal calf serum (FCS). Treatment is started with the addition of the relevant drug. For combination treatment (TKI plus gemcitabine), cells are re-suspended in medium (1% FCS) containing 0, 5 or 10 μM of the relevant TKI and incubated overnight before gemcitabine addition. After 72 hours, WST-1 reagent is added and incubated with the cells for 4 hours before absorbance measurement at 450 nm in an EL800 Universal Microplate Reader (Bio-Tek Instruments Inc.). Media alone is used as a blank and proliferation in the absence of drug served as a positive control. A TKI sensitization index is calculated as the ratio of the IC50 of gemcitabine against the IC50 of the drug combination.

MDAMB231 = experiment: WST-1 proliferation/viability assay, MDAMB231; type: cell-based, human; details: 72 h, 1% FCS
Experimental: (§1) Breast cancer cell lines (generous gift from Dr. […], UMR 599 INSERM, Marseille, France) were cultured as monolayers in RPMI 1640 medium, containing L-glutamine supplemented with 100 U/mL penicillin and 100 μg/mL streptomycin, and 10% v/v heat-inactivated fetal calf serum (AbCys Lot S02823S1800) under standard culture conditions (5% CO2, 95% air in humidified chamber at 37° C.). During proliferation assay, all cells were grown in medium containing 1% FCS. Colorimetric cell proliferation and viability assay (reagent WST-1 purchased from Roche cat N^o 1644807)-Cells were washed once and resuspended in RPMI 1% FCS. Cells were plated at 1×10^4/50 μl per well of a 96 well plate. […] Treatment was started by the addition of 50 μl of a 2× concentrated drug solution to a final volume of 100 μl. […] After incubating for 72 hours at 37° C., 10 μl of a 1⁄2 dilution of WST-1 reagent was added to each well and the plates were returned to the incubator for an additional 4 hours. The absorbance of the samples was measured at 490 nm using an EL800 Universal microplate reader (Bio-Tek Instruments Inc.). A background control without cells was used as a blank. The positive control of the assay corresponds to the cell proliferation obtained in the absence of drug treatment (100% proliferation). Each sample was done in duplicate, the absorbance values were transferred to an excel file, the average and standard deviation of the duplicates were calculated and expressed as a percentage of the proliferation obtained in absence of treatment. The results presented are representative of a minimum of four experiments.

MCF-7 = experiment: WST-1 proliferation/viability assay, MCF-7; type: cell-based; details: Homo sapiens, 72 h, 1% FCS
Experimental: as §1, with “The positive control of the assay corresponds to the cell proliferation obtained in the absence of drug treatment (100% proliferation).” left out, “The results presented are representative of a minimum of four experiments.” left out

HCC1937 = experiment: WST-1 proliferation/viability assay, HCC1937; type: cell-based; details: Homo sapiens, doxorubicin single agent, 72 h, 1% FCS
Experimental: as §1, with “The positive control of the assay corresponds to the cell proliferation obtained in the absence of drug treatment (100% proliferation).” left out, “The results presented are representative of a minimum of four experiments.” left out

MDAMB134 = experiment: WST-1 proliferation/viability assay, MDAMB134; type: cell-based, human; details: 72 h, 1% FCS
Experimental: as §1

[1] = test system: CMT-U309 canine mammary tumor cell line; experiment: MTT proliferation assay and combination index, CMT-U309; details: for Viability (%): 72 hours incubation, doses at single-agent IC50 concentrations; for IC50: single agent
Experimental: (§2) Two canine mammary tumor (CMT) cell lines were evaluated, CMT-U27 and CMT-U309. CMT-U27 is a highly metastatic canine mammary carcinoma cell line while CMT-U309 is a non-metastatic spindle-cell cell line. Cell lines were maintained in Dulbecco's modified Eagles Medium-F12 supplemented with 10% fetal bovine serum and antimicrobials (penicillin [100 U/mL] and streptomycin [0.1 mg/mL]). Cell lines were maintained in a humidified atmosphere of 5% carbon dioxide at 37° C.
(§3) Solutions were prepared newly prepared from the stock solution for each experiment.
(§4) Cells were seeded at a density of 1.0×10^4 cells/well (final volume, 100 μL/well) in three replicates. […] At the end of treatment, 10 μl of MTT solution (5 mg/ml in PBS) was added to each well. The plates were incubated for 4 hours in a humidified atmosphere at 37° C. with 5% CO2. After that incubation, cell proliferation was assessed by use of a commercial cell proliferation MTT [3-(4,5-dimethylthiazol-2-yl)-2,5-diphenyltrazolium bromide] kit. All samples were assayed in triplicate, and the mean for each experiment was calculated. The effect of each compound on growth inhibition was assessed as percent cell viability where vehicle-treated cells were taken as 100% viable. Cell proliferation was expressed as a percentage of the control wells by use of the following equation: (absorbance of sample wells/absorbance of control wells)×100. The mean of triplicate experiments for each dose was used to calculate IC50 as determined by CalcuSyn software.

[2] = test system: CMT-U27 canine mammary carcinoma cell line; experiment: MTT proliferation assay and combination index, CMT-U27; type: cell-based; details: for IC50: single agent, read-out: IC50 growth inhibitory activity
Experimental: as §2, §3, §4

BT474 = experiment: WST-1 proliferation/viability assay, BT474; type: cell-based, human; details: 72 h, 1% FCS
Experimental: as §1, with “The positive control of the assay corresponds to the cell proliferation obtained in the absence of drug treatment (100% proliferation).” left out, “The results presented are representative of a minimum of four experiments.” left out

BT20 = experiment: WST-1 proliferation/viability assay, BT20; type: cell-based; details: Homo sapiens, BT-20, gemcitabine single agent, 72 h, 1% FCS
Experimental: as §1, with “The positive control of the assay corresponds to the cell proliferation obtained in the absence of drug treatment (100% proliferation).” left out, “The results presented are representative of a minimum of four experiments.” left out

breast cancer cell lines = experiment: WST-1 proliferation assay, masitinib mesilate single agent; type: cell-based; details: Homo sapiens, 1% FCS
Experimental: Breast cancer cell lines (generous gift from Dr. […], UMR 599 INSERM, Marseille, France) were cultured as monolayers in RPMI 1640 medium, containing L-glutamine supplemented with 100 U/mL penicillin and 100 μg/mL streptomycin, and 10% v/v heat-inactivated fetal calf serum (AbCys Lot S02823S1800) under standard culture conditions (5% CO2, 95% air in humidified chamber at 37° C.). During proliferation assay, all cells were grown in medium containing 1% FCS. Colorimetric cell proliferation and viability assay (reagent WST-1 purchased from Roche cat N^o 1644807)-Cells were washed once and resuspended in RPMI 1% FCS. Cells were plated at 1×10^4/50 μl per well of a 96 well plate. […] Treatment was started by the addition of 50 μl of a 2× concentrated drug solution to a final volume of 100 μl. […] The absorbance of the samples was measured at 490 nm using an EL800 Universal microplate reader (Bio-Tek Instruments Inc.). […] Each sample was done in duplicate, the absorbance values were transferred to an excel file, the average and standard deviation of the duplicates were calculated and expressed as a percentage of the proliferation obtained in absence of treatment. […] Breast cancer cell lines were first analyzed for their sensitivity to masitinib mesilate when used as single agent.

[3] = test system: relapsed or refractory inflammatory breast cancer; details: lapatinib 1500 mg/day; 126 patients; Kaufman et al. 2009; cited from earlier work
[4] = test system: metastatic or locally advanced breast cancer (except triple negative); details: patients resistant to at least one first-line chemotherapy; literature (Miller 2005; Brodowicz 2000); cited from earlier work
[5] = test system: TNBC (metastatic or locally advanced); details: cisplatin alone (N = 58); Baselga et al. 2013; cited from earlier work
[6] = Canis lupus familiaris, 24 h, read-out: IC50 growth inhibitory activity, CMT-U309, 24 h
[7] = Canis lupus familiaris, 48 h, read-out: IC50 growth inhibitory activity, CMT-U309, 48 h
[8] = Canis lupus familiaris, 72 h, read-out: IC50 growth inhibitory activity, CMT-U309, 72 h
[9] = carboplatin single agent, read-out: IC50 CPT

SMILES: Cc1ccc(NC(=O)c2ccc(CN3CCN(C)CC3)cc2)cc1Nc1nccc(-c2cccnc2)n1 [imatinib]
- cell proliferation, single agent (Mia Paca-2 cells; FIG. 1): only weakly inhibited
- sensitization of cells to gemcitabine by TKI pre-incubation (Mia Paca-2 cells): does not result in an increased response

- IC50 (MDAMB231; Homo sapiens, MDA-MB-231, doxorubicin single agent, read-out: IC50 DOX): 1 µM
- IC50 (MCF-7; MCF7, doxorubicin single agent, read-out: IC50 DOX): 1 µM
- IC50 (HCC1937): 1000 nM
- IC50 (MDAMB134; Homo sapiens, doxorubicin single agent, read-out: IC50 DOX): 1 µM
SMILES: COc1cccc2c1C(=O)c1c(O)c3c(c(O)c1C2=O)C[C@@](O)(C(=O)CO)C[C@@H]3O[C@H]1C[C@H](N)[C@H](O)[C@H](C)O1 [DOX, doxorubicin]

SMILES: O=C1c2c(O)ccc(O)c2C(=O)c2c(NCCNCCO)ccc(NCCNCCO)c21 [Mitoxantrone, Mitoxantrone dihydrochloride]
- Viability (%) ([1]; CMT-U309): 56.8%
- IC50 [1, 6]: 2.77 µM
- IC50 [1, 7]: 1 µM
- IC50 [1, 8]: 0.75 µM
- IC50 ([1]; read-out: IC50 growth inhibitory activity, CMT-U309, 72 h, dihydrochloride): 0.751 µM
- IC50 ([2]; 72 h, listed as Mixoxantrone, dihydrochloride): 0.219 µM
- IC50 ([2]; Canis lupus familiaris, 24 h): 3.09 µM
- IC50 ([2]; Canis lupus familiaris, 48 h): 1.11 µM
- IC50 ([2]; Canis lupus familiaris, 72 h): 0.22 µM

SMILES: N.N.O=C([O-])C1(C(=O)[O-])CCC1.[Pt+2] [CPT, carboplatin]
- IC50 (MDAMB231; [9]): > 100 µM
- IC50 (BT474; [9]): > 100 µM
- IC50 (MDAMB134; [9]): > 100 µM

- IC50 (MDAMB231; Homo sapiens, MDA-MB-231, gemcitabine single agent, read-out: IC50 GCB): 100 µM
- IC50 (BT474; Homo sapiens, BT-474, gemcitabine single agent, read-out: IC50 GCB): 100 µM
- IC50 (MDAMB134; Homo sapiens, gemcitabine single agent, read-out: IC50 GCB): 100 µM
- IC50 (BT20): 50 µM
SMILES: Nc1ccn([C@@H]2O[C@H](CO)[C@@H](O)C2(F)F)c(=O)n1 [GCB, 2′,2′,-dofluoro-2′,-deoxycytidine]
- IC50 (Mia Paca-2 cells): > 10 µM

- IC50 (breast cancer cell lines): > 6 µM
SMILES: Cc1ccc(NC(=O)c2ccc(CN3CCN(C)CC3)cc2)cc1Nc1nc(-c2cccnc2)cs1 [Masitinib mesilate]

- IC50 [1, 6]: 15 µM
- IC50 [1, 7]: 8.87 µM
- IC50 [1, 8]: 8.5 µM
- IC50 ([1]; read-out: IC50 growth inhibitory activity, CMT-U309, 72 h): 8.54 µM
- IC50 ([2]; 72 h): 7.5 µM
- IC50 ([2]; Canis lupus familiaris, 24 h): 9.13 µM
- IC50 ([2]; Canis lupus familiaris, 48 h): 7.61 µM
- IC50 ([2]; Canis lupus familiaris, 72 h): 7.5 µM
SMILES: Cc1ccc(NC(=O)c2ccc(CN3CCN(C)CC3)cc2)cc1Nc1nc(-c2cccnc2)cs1 [Masitinib, 4-(4-methylpiperazin-1-ylmethyl)-N-[4-methyl-3-(4-pyridin-3ylthiazol-2-ylamino)phenyl]benzamide]
- Viability (%) ([1]; CMT-U309): 66.0%
- IC50 (Mia Paca-2 cells): 5 to 10 µM
- sensitization of cells to gemcitabine by TKI pre-incubation (Mia Paca-2 cells): significantly sensitized
- cells remaining resistant (Mia Paca-2 cells; masitinib concentration of 10 μM, FIG. 1): more than 50%
- Viability (%) ([2]; 72 hours incubation, doses at single-agent IC50 concentrations): 77.3%

SMILES: CS(=O)(=O)CCNCc1ccc(-c2ccc3ncnc(Nc4ccc(OCc5cccc(F)c5)c(Cl)c4)c3c2)o1 [Lapatinib, lapatinib]
- Median overall survival [3]: 11.2 months

SMILES: Cc1nc(Nc2ncc(C(=O)Nc3c(C)cccc3Cl)s2)cc(N2CCN(CCO)CC2)n1 [dasatinib]
- cell proliferation, single agent (Mia Paca-2 cells; FIG. 1): affected by a similar extent
- sensitization of cells to gemcitabine by TKI pre-incubation (Mia Paca-2 cells): does not result in an increased response
- cell proliferation at low concentrations (Mia Paca-2 cells; concentrations superior to 0.1 μM): partial inhibition

- IC50 (MDAMB231; Homo sapiens, MDA-MB-231, irinotecan single agent, read-out: IC50 CPT-11): 30 µM
- IC50 (MCF-7; MCF7, irinotecan single agent, read-out: IC50 CPT-11): 100 µM
- IC50 (MDAMB134; Homo sapiens, irinotecan single agent, read-out: IC50 CPT-11): 30 µM
SMILES: CCc1c2c(nc3ccc(OC(=O)N4CCC(N5CCCCC5)CC4)cc13)-c1cc3c(c(=O)n1C2)COC(=O)[C@]3(O)CC [CPT-11, irinotecan]

SMILES: CCCCCOC(=O)Nc1nc(=O)n([C@@H]2O[C@H](C)[C@@H](O)[C@H]2O)cc1F [capecitabine]
- Median OS (months), benchmark single agent (L2) [4]: 14.5 months

SMILES: N.N.[Cl][Pt][Cl] [Cisplatin, cisplatin]
- Median OS (months) [5]: 9.4 months

From patent US20170340629A1 (AB SCIENCE, priority 2014, published 2017)
